According to ChEMBL document CHEMBL3871305, “Imidazopyridyl compounds as aldosterone synthase inhibitors” (Bioorg Med Chem Lett, 2017):

Tests used:
[1] = Plasma clearance in Wistar Han rat at 1 mg/kg, iv or 2 mg/kg, po; assay type: ADME, organism-based
[2] = Volume of distribution at steady state in Wistar Han rat at 1 mg/kg, iv or 2 mg/kg, po; assay type: ADME, organism-based; conditions: in vivo, read-out: Vdss
[3] = MRT in Wistar Han rat at 1 mg/kg, iv or 2 mg/kg, po; assay type: ADME, organism-based; conditions: in vivo
[4] = Half life in Wistar Han rat at 1 mg/kg, iv or 2 mg/kg, po; assay type: ADME, organism-based; conditions: in vivo
[5] = Dose normalized AUC in Wistar Han rat at 2 mg/kg, po; assay type: ADME, organism-based; conditions: in vivo
[6] = Cmax in Wistar Han rat at 1 mg/kg, iv or 2 mg/kg, po; assay type: ADME, organism-based; conditions: in vivo
[7] = Oral bioavailability in Wistar Han rat at 2 mg/kg; assay type: ADME, organism-based; conditions: in vivo
[8] = in vitro; conditions: human, liver microsomes
[9] = in vitro; conditions: rat, liver microsomes
[10] = in vitro; conditions: rhesus monkey, liver microsomes

Row | SMILES | clearance [1] [mL/min/kg] | Vd [2] [L/kg] | MRT [3] [min] | half-life [4] [min] | AUC/dose [5] [µM·kg·h/mg] | Cmax [6] [nM] | bioavailability [7] [%] | remaining at 0.5 h, 1 µM [8] [%] | remaining at 0.5 h, 1 µM [9] [%] | remaining at 0.5 h, 1 µM [10] [%]
1 | Fc1cncc(-c2nc3ccc(F)cn3c2C2CC2)c1 |  |  |  |  |  |  |  | 93 | 70 | 29
2 | Fc1cncc(-c2nc3cc(F)c(Cl)cn3c2C2CC2)c1 |  |  |  |  |  |  |  | 93 | 80 | 87
3 | CCc1c(F)cncc1-c1nc2ccc(F)cn2c1C1CC1 |  |  |  |  |  |  |  | 37 | 2 | 0

The next lines start with the values.

Row | clearance [1] [mL/min/kg] | Vd [2] [L/kg] | MRT [3] [min] | half-life [4] [min] | AUC/dose [5] [µM·kg·h/mg] | Cmax [6] [nM] | bioavailability [7] [%] | remaining at 0.5 h, 1 µM [8] [%] | remaining at 0.5 h, 1 µM [9] [%] | remaining at 0.5 h, 1 µM [10] [%] | SMILES
4 | 23 | 0.82 | 34.8 | 36.6 | 0.92 | 700 | 47 | 88 | 38 | 31 | C[C@](O)(c1cncc(-c2nc3ccc(F)cn3c2C2CC2)c1)C(F)(F)F
5 |  |  |  |  |  |  |  | 96 | 33 | 31 | C[C@@](O)(c1cncc(-c2nc3ccc(F)cn3c2C2CC2)c1)C(F)(F)F
